Where two headings read alike, the source gives them in different places.

Series [1] is described as follows: Stability of aqueous solutions of salts at 40° C., analyzed by HPLC. The series is classed as physicochemical. The method, then:
Aqueous solutions of TPPS2a salts (approx. 1% weight) were kept at 40° C. for 31 days. The solutions were analyzed by HPLC (HP 1100). The HPLC conditions were as follows:
Column: Agilent Extend C-18
Mobile phase: 85% methanol, 15% water
Detector: UV detector, 415 nm
Aqueous solutions of TPCS2a salts (approx. 1% weight) were kept at 40° C. for 31 days.

Series [2] is described as follows: Solubility of salts in water (water added in 0.2 ml portions). It is filed as physicochemical.
Source text: The mixture was agitated until solid particles were broken up and dissolved.
Series [3] deals with target tumour (head and neck squamous cell carcinoma, osteosarcoma, skin metastases of breast cancer). The following applies: other photosensitizers formulated in non-aqueous formulations; cited from earlier work.
Series [4] shares this test system. The series is classed as in vivo, patients. As to conditions: 0.25-1.0 mg/kg 4 days before illumination (652 nm, 60 J/cm^2), bleomycin 15 000 IU per m^2 i.v. 3 hours before illumination; a few weeks after treatment. The method, then: In addition, the patients received an intravenous injection of the cytotoxic agent bleomycin (15 000 IU per m^2 body surface) 3 hours before illumination. […] The aqueous formulation also made it possible to flush the injection needle and vein with saline after photosensitizer injection, thereby eliminating the unwanted effect of photosensitivity at or near to the injection site which is often observed for photosensitizers in non-aqueous formulations where such flushing is not possible. The patient population included patients with head and neck cancers (squamous cell carcinoma), osteosarcoma and skin metastases of breast cancer.

Where [5] appears, read: aqueous solution approx. 1% weight, 40° C. for 31 days, HPLC UV 415 nm.

As for `NCCO.NCCO.O=S(=O)(O)c1ccc(-c2c3nc(c(-c4ccc(S(=O)(=O)O)cc4)c4ccc([nH]4)c(-c4ccccc4)c4nc(c(-c5ccccc5)c5ccc2[nH]5)C=C4)C=C3)cc1` [Example 1, Meso-Tetraphenyl Porphyrin Disulphonate bis(monoethanolamine)], in series [1] (setting [5]), the Degradation result is on record as “No degradation”.

With `CNCC(O)C(O)C(O)C(O)CO.CNCC(O)C(O)C(O)C(O)CO.O=S(=O)(O)c1ccc(-c2c3nc(c(-c4ccccc4)c4ccc([nH]4)c(-c4ccccc4)c4nc(c(-c5ccc(S(=O)(=O)O)cc5)c5ccc2[nH]5)C=C4)C=C3)cc1` [Example 2, Meso-Tetraphenyl Porphyrin Disulphonate bis(meglumate)], the “Minimum solubility in water” value in series [2] was 89.7 mg/mL. The Degradation entry in series [1] is “No degradation”. For `O=S(=O)(O)c1ccc(-c2c3nc(c(-c4ccccc4)c4ccc([nH]4)c(-c4ccccc4)c4nc(c(-c5ccc(S(=O)(=O)O)cc5)c5ccc2[nH]5)C=C4)C=C3)cc1.OCCNCCO.OCCNCCO` [Example 4, Meso-Tetraphenyl Porphyrin Disulphonate bis(diethanolamine)], the Degradation entry in series [1] is listed as “No degradation”.

For the compound `O=S(=O)(O)c1ccc(-c2c3nc(c(-c4ccc(S(=O)(=O)O)cc4)c4ccc([nH]4)c(-c4ccccc4)c4nc(c(-c5ccccc5)c5ccc2[nH]5)C=C4)C=C3)cc1.OCCN1CCCC1.OCCN1CCCC1` [Example 5, Meso-Tetraphenyl Porphyrin Disulphonate bis(1-(2-hydroxyethyl)pyrrolidine)], the Degradation result in series [1] was “No degradation”. `O=S(=O)(O)c1ccc(-c2c3nc(c(-c4ccc(S(=O)(=O)O)cc4)c4ccc([nH]4)c(-c4ccccc4)c4nc(c(-c5ccccc5)c5ccc2[nH]5)C=C4)C=C3)cc1.OCCN(CCO)CCO.OCCN(CCO)CCO` [Example 6, Meso-Tetraphenyl Porphyrin Disulphonate bis(triethanolamine)]: the Degradation result in series [1] (setting [5]) is given as “No degradation”. Consider `Oc1cccc(-c2c3nc(c(-c4cccc(O)c4)c4ccc([nH]4)c(-c4cccc(O)c4)c4nc(c(-c5cccc(O)c5)c5ccc2[nH]5)CC4)C=C3)c1` [temoporfin], for which, in series [3], the Pain on administration result is reported as “can be associated with strong pain”. For the compound “Meso-Tetraphenyl Chlorin Disulphonate bis(meglumate) [Example 8]”, the “Minimum solubility in water” value in series [2] (approx. 50 mg salt, water added in 0.2 ml portions until dissolved) came to 38.9 mg/mL. In addition, the Degradation entry in series [1] (setting [5]) was “No degradation”. Take “Meso-Tetraphenyl Chlorin Disulphonate bis(monoethanolamine) [Example 7]”: in series [1], the Degradation result is reported as “No degradation”. For the compound “Meso-tetraphenyl chlorin disulphonate [TPCS2a]”, the “Clinical regression of the target tumour” value in series [4] was “Complete clinical regression of the target tumour was induced in all patients”.

The values above are taken from patent publication US9026203B2, “Photosensitizing compositions” (PCI Biotech AS, priority 2009, dated 2015).
